Experimental data published in PMC10537280, “Chemo-/Regio-Selective Synthesis of Novel Functionalized Spiro[pyrrolidine-2,3′-oxindoles] under Microwave Irradiation and Their Anticancer Activity” (Molecules, 2023).
Like-named read-outs stand apart in the source and are kept apart here.

Assays:
[1] = tested on: human lung A549 cancer cell lines; assay: MTT cytotoxicity assay, lung cancer A549 cells; assay type: cell-based; settings: for IC50: Homo sapiens, read-out: A549 Cells IC50; for S.I. Selectivity index lung (IC50 normal cells/IC50 cancer cells): BEAS-2B IC50 / A549 IC50
Method: (§1) Adenocarcinomic human alveolar basal epithelial (A549) and human hepatoma (HepG2) cancer cell lines, immortalized normal human liver (LO2), human bronchial epithelial (BEAS-2B cells were purchased from [NT], Manassas, VA, USA). […] Invitrogen, Waltham, MA, USA). All cells were incubated at 37 °C in a 5% humidified CO2 incubator). All test compounds were dissolved in DMSO at a final concentration of 50 mM and stored at -20 °C before use. Cytotoxicity was assessed by the MTT (5 mg/mL) assay, as described previously. Briefly, 5 × 10^3 cells per well were seeded in 96-well plates before drug treatments. […] Cells without drug treatment were used as controls. Subsequently, 10 μL of 5 mg/mL MTT solution was added to each well and incubated at 37 °C for 4 h, followed by the addition of 100 μL solubilization buffer (12 mM HCl in a solution of 10% SDS) and overnight incubation. The absorbance, A570 nm, was then determined in each well on the next day. The percentage of cell viability was calculated using the expression: % viability = Atreated/Acontrol × 100, and was given as cytotoxicity (Table 2 and Table 3; […]

[2] = tested on: immortalized lung BEAS-2B normal cell lines; assay: MTT cytotoxicity assay, normal lung BEAS-2B cells; assay type: cell-based; settings: Homo sapiens, 72 h, read-out: BEAS-2B Cells IC50
Method: as §1

[3] = tested on: human HepG2 cancer cell lines; assay: MTT cytotoxicity assay, liver cancer HepG2 cells; assay type: cell-based; settings: for IC50: read-out: HepG2 Cells IC50; for S.I. Selectivity index liver (IC50 normal cells/IC50 cancer cells): LO2 IC50 / HepG2 IC50
Method: as §1

[4] = tested on: immortalized liver LO2 normal cell lines; assay: MTT cytotoxicity assay, normal liver LO2 cells; assay type: cell-based; settings: Homo sapiens, read-out: LO2 Cells IC50
Method: as §1

[5] = A549, MTT, 72 h, 0.19–100 μM, means of at least three independent experiments in duplicates
[6] = MTT, 0.19–100 μM, normal lung cells
[7] = Homo sapiens, HepG2, 72 h, MTT, 72 h, 0.19–100 μM, means of at least three independent experiments in duplicates
[8] = L02, MTT, 72 h, 0.19–100 μM, normal liver cells

| SMILES | IC50 [1, 5] [µM] | IC50 [2, 6] [µM] | IC50 [3, 7] [µM] | IC50 [4, 8] [µM] | melting point [°C] | S.I. Selectivity index lung (IC50 normal cells/IC50 cancer cells) [1] | S.I. Selectivity index liver (IC50 normal cells/IC50 cancer cells) [3] | IC50 ([3]; MTT, 72 h, 0.19–100 μM, means of at least three independent experiments in duplicates) [µM] | IC50 ([1]; A549, 72 h) [µM] | IC50 [2] [µM] | IC50 ([3]; Homo sapiens, HepG2, 72 h) [µM] | IC50 ([4]; L02, 72 h) [µM] |
| --- | --- | --- | --- | --- | --- | --- | --- | --- | --- | --- | --- | --- |
| COc1ccc(C2C([N+](=O)[O-])C(CC(C)C)NC23C(=O)Nc2ccc(Br)cc23)cc1OCc1ccccc1 (stereo not drawn) [Compound 4f, 3′-(3-(benzyloxy)-4-methoxyphenyl)-5-bromo-5′-isobutyl-4′-nitrospiro[indoline-3,2′-pyrrolidin]-2-one] | 41.1 | > 100 | 82 | > 100 | 95 to 97 | – | – | – | – | – | – | – |
| C[C@H]1[C@H](OC(=O)CCC(=O)O)O[C@@H]2O[C@@]3(C)CC[C@H]4[C@H](C)CC[C@@H]1[C@@]24OO3 [AS, artesunic acid, reference compound] | 9.85 | 7.53 | 4.09 ± 0.4 | 8.25 | – | 0.76 | 2.01 | – | – | – | – | – |
| COc1cccc(C2C([N+](=O)[O-])C3CCCN3C23C(=O)Nc2ccc(Br)cc23)c1 (stereo not drawn) [Compound 4t, 5-bromo-2′-(3-methoxyphenyl)-1′-nitro-1′,2′,5′,6′,7′,7a′-hexahydrospiro[indoline-3,3′-pyrrolizin]-2-one] | 45.2 | 67.7 | 46.1 | 45.5 | 145 to 147 | 1.50 | 0.99 | – | – | – | – | – |
| COc1ccc(C2C([N+](=O)[O-])C(CC(C)C)NC23C(=O)Nc2ccccc23)cc1OC (stereo not drawn) [Compound 4h, 3′-(3,4-dimethoxyphenyl)-5′-isobutyl-4′-nitrospiro[indoline-3,2′-pyrrolidin]-2-one] | > 100 | > 100 | > 100 | > 100 | 73 to 75 | – | – | – | – | – | – | – |
| COc1ccc(OC)c(C2C([N+](=O)[O-])C(CC(C)C)NC23C(=O)Nc2ccccc23)c1 (stereo not drawn) [Compound 4a, 3′-(2,5-dimethoxyphenyl)-5′-isobutyl-4′-nitrospiro[indoline-3,2′-pyrrolidin]-2-one] | > 100 | > 100 | > 100 | > 100 | 182 to 184 | – | – | – | – | – | – | – |
| COc1ccc(C2C([N+](=O)[O-])C(C)NC23C(=O)Nc2ccccc23)cc1OC (stereo not drawn) [Compound 4i, 3′-(3,4-dimethoxyphenyl)-5′-methyl-4′-nitrospiro[indoline-3,2′-pyrrolidin]-2-one] | > 100 | > 100 | > 100 | > 100 | 165 to 167 | – | – | – | – | – | – | – |
| COc1ccc(C2C([N+](=O)[O-])C3CCCN3C23C(=O)Nc2ccc(Br)cc23)cc1OC (stereo not drawn) [Compound 4w, 5-bromo-2′-(3,4-dimethoxyphenyl)-1′-nitro-1′,2′,5′,6′,7′,7a′-hexahydrospiro [indoline-3,3′-pyrrolizin]-2-one] | > 100 | > 100 | > 100 | > 100 | 195 to 197 | – | – | – | – | – | – | – |
| COc1cc(C2C([N+](=O)[O-])C(C)NC23C(=O)Nc2ccccc23)ccc1OCc1ccccc1 (stereo not drawn) [Compound 4l, 3′-(4-(benzyloxy)-3-methoxyphenyl)-5′-methyl-4′-nitrospiro[indoline-3,2′-pyrrolidin]-2-one] | > 100 | > 100 | > 100 | > 100 | 168 to 170 | – | – | – | – | – | – | – |
| COc1ccc(C2C([N+](=O)[O-])C3CCCN3C23C(=O)Nc2ccc(Br)cc23)cc1OCc1ccccc1 (stereo not drawn) [Compound 4q, 2′-(3-(benzyloxy)-4-methoxyphenyl)-5-bromo-1′-nitro-1′,2′,5′,6′,7′,7a′-hexahydrospiro[indoline-3,3′-pyrrolizin]-2-one] | 47.9 | > 100 | 85.6 | 46.8 | 98 to 100 | – | 0.54 | 86.5 | – | – | – | – |
| C[C@@H]1CC[C@H]2[C@@H](C)C(=O)O[C@@H]3O[C@@]4(C)CC[C@@H]1[C@]32OO4 [ART, artemisinin, reference compound] | 100 | 100 | > 100 | > 100 | – | – | – | – | – | – | – | – |
| COc1cc(C2C([N+](=O)[O-])C(CC(C)C)NC23C(=O)Nc2ccccc23)ccc1OCc1ccccc1 (stereo not drawn) [Compound 4k, 3′-(4-(benzyloxy)-3-methoxyphenyl)-5′-isobutyl-4′-nitrospiro[indoline-3,2′-pyrrolidin]-2-one] | > 100 | > 100 | 67.8 | 33.3 | 68 to 70 | – | 0.49 | – | – | – | – | – |
| COc1ccc(OC)c(C2C([N+](=O)[O-])C(C)NC23C(=O)Nc2ccc(Br)cc23)c1 (stereo not drawn) [Compound 4e, 5-bromo-3′-(2,5-dimethoxyphenyl)-5′-methyl-4′-nitrospiro[indoline-3,2′-pyrrolidin]-2-one] | 85.6 | > 100 | > 100 | 81.3 | 108 to 110 | – | <0.81 | – | – | – | – | – |
| COc1cc(C2C([N+](=O)[O-])C3CCCN3C23C(=O)Nc2ccc(Br)cc23)ccc1OCc1ccccc1 (stereo not drawn) [Compound 4o, 2′-(4-(benzyloxy)-3-methoxyphenyl)-5-bromo-1′-nitro-1′,2′,5′,6′,7′,7a′-hexahydrospiro[indoline-3,3′-pyrrolizin]-2-one] | > 100 | > 100 | > 100 | > 100 | 95 to 97 | – | – | – | – | – | – | – |
| COc1ccc(OC)c(C2C([N+](=O)[O-])C3CCCN3C23C(=O)Nc2ccccc23)c1 (stereo not drawn) [Compound 4s, 2′-(2,5-dimethoxyphenyl)-1′-nitro-1′,2′,5′,6′,7′,7a′-hexahydrospiro[indoline-3,3′-pyrrolizin]-2-one] | > 100 | > 100 | > 100 | > 100 | 174 to 176 | – | – | – | – | – | – | – |
| COc1cc(C2C([N+](=O)[O-])C(C)NC23C(=O)Nc2ccc(Br)cc23)ccc1OCc1ccccc1 (stereo not drawn) [Compound 4m, 3′-(4-(benzyloxy)-3-methoxyphenyl)-5-bromo-5′-methyl-4′-nitrospiro[indoline-3,2′-pyrrolidin]-2-one] | 45.9 | 63.5 | 41.6 | 36.6 | 168 to 170 | 1.38 | 0.88 | – | – | – | – | – |
| COc1cc(C2C([N+](=O)[O-])C3CCCN3C23C(=O)Nc2ccccc23)ccc1OCc1ccccc1 (stereo not drawn) [Compound 4n, 2′-(4-(benzyloxy)-3-methoxyphenyl)-1′-nitro-1′,2′,5′,6′,7′,7a′-hexahydrospiro[indoline-3,3′-pyrrolizin]-2-one] | > 100 | > 100 | > 100 | > 100 | 66 to 68 | – | – | – | – | – | – | – |
| COc1ccc(C2C([N+](=O)[O-])C3CCCN3C23C(=O)Nc2ccccc23)cc1OCc1ccccc1 (stereo not drawn) [Compound 4p, 2′-(3-(benzyloxy)-4-methoxyphenyl)-1′-nitro-1′,2′,5′,6′,7′,7a′-hexahydrospiro[indoline-3,3′-pyrrolizin]-2-one] | > 100 | > 100 | > 100 | > 100 | 83 to 85 | – | – | – | – | – | – | – |
| COc1ccc(C2C([N+](=O)[O-])C(C)NC23C(=O)Nc2ccc(Br)cc23)cc1OC (stereo not drawn) [Compound 4j, 5-bromo-3′-(3,4-dimethoxyphenyl)-5′-methyl-4′-nitrospiro[indoline-3,2′-pyrrolidin]-2-one] | > 100 | > 100 | > 100 | > 100 | 155 to 157 | – | – | – | – | – | – | – |
| CCN(CC)CCCC(C)Nc1ccnc2cc(Cl)ccc12 (stereo not drawn) [CQ, chloroquine, reference compound] | – | – | – | – | – | – | 0.30 | – | 100 | 3.07 | 49.02 ± 0.4 | 15 |
| COc1ccc(C2C([N+](=O)[O-])C3CCCN3C23C(=O)Nc2ccccc23)cc1OC (stereo not drawn) [Compound 4v, 2′-(3,4-dimethoxyphenyl)-1′-nitro-1′,2′,5′,6′,7′,7a′-hexahydrospiro[indoline-3,3′-pyrrolizin]-2-one] | > 100 | > 100 | > 100 | > 100 | 175 to 177 | – | – | – | – | – | – | – |
